Assay results taken from patent US8906929B2, “Inhibitors of human immunodeficiency virus replication” (priority 2012, dated 2014).

system: recombinant NL-Rluc virus; test: Inhibition of HIV replication (NL-RLuc virus in MT-2 cells, luciferase readout); type: cell-based; details: 5 days of incubation, 10% FBS

Row | Structure (SMILES) | EC50 [nM]
1 | Cc1ccc2c(c1)-c1cccc(c1)-c1cc3nc(C)c([C@H](OC(C)(C)C)C(=O)O)c(n3n1)N1CCC(C)(CC1)OCCCC(C)CO2 (single isomer, unassigned) [Example 104] | 26
2 | Cc1ccc2c(c1)-c1cccc(c1)-c1cc3nc(C)c([C@H](OC(C)(C)C)C(=O)O)c(n3n1)N1CCC(C)(CC1)OCCCC(C)C(C)O2 (single isomer, unassigned) [Example 94] | 35
3 | Cc1nc2cc3nn2c(c1[C@H](OC(C)(C)C)C(=O)O)-c1ccc2c(c1)C(CCCCc1ccccc1-c1cccc-3c1)CCO2 (single isomer, unassigned) [Example 11] | 1270

same assay, conditions: Human immunodeficiency virus 1, MT2, 120 h, 5 days of incubation, 10% FBS

Row | Structure (SMILES) | EC50 [nM]
4 | Cc1nc2cc3nn2c(c1[C@H](OC(C)(C)C)C(=O)O)N1CCC(C)(/C=C/C=C\CCc2ccccc2-c2cccc-3c2)CC1 [Example 39, (2S)-2-(tert-Butoxy)-2-[(23Z,25E)-4,27-dimethyl-1,5,7,8-tetraazahexacyclo[25.2.2.1^6,^9.1^10,^14.0^2,^7.0^15,^20]tritriaconta-2,4,6(33),8,10(32),11,13, 15(20), 16,18,23,25-dodecaen-3-yl]acetic acid] | 118
5 | Cc1nc2cc3nn2c(c1[C@H](OC(C)(C)C)C(=O)O)-c1ccc2c(c1)[C@H](CCCCOc1ccccc1-c1cccc-3c1)CCO2 (single isomer, unassigned) [Example 12] | 7
6 | Cc1nc2cc3nn2c(c1[C@H](OC(C)(C)C)C(=O)O)N1CCC(C)(CC1)OCC=CCOc1ccc(F)cc1-c1cccc-3c1 [Example 62] | 7
7 | Cc1nc2cc3nn2c(c1[C@H](OC(C)(C)C)C(=O)O)N1CCC(C)(/C=C/CCCOc2ccc(Cl)cc2-c2cccc-3c2)CC1 [Example 45, (2S)-2-(tert-Butoxy)-2-[(25E)-17-chloro-4,27-dimethyl-21-oxa-1,5,7,8-tetraazahexacyclo[25.2.2.1^6,^9.1^10,^14.0^2,^7.0^15,^20]tritriaconta-2,4,6(33),8,10(32),11,13,15(20),16,18,25-undecaen-3-yl]acetic acid] | 33
8 | Cc1ccc2c(c1)-c1cccc(c1)-c1cc3nc(C)c([C@H](OC(C)(C)C)C(=O)O)c(n3n1)N1CCC(C)(CC1)OCCCC[C@H](C)O2 [Example 55, (2S)-2-(tert-Butoxy)-2-[(22S)-4,17,22,28-tetramethyl-21,27-dioxa-1,5,7,8-tetraazahexacyclo[26.2.2.1^6,^9.1^10,^14.0^2,^7.0^15,^20]tetratriaconta-2,4,6(34), 8, 10(33), 11, 13, 15 (20),16,18-decaen-3-yl]acetic acid] | 14
9 | Cc1nc2cc3nn2c(c1[C@H](OC(C)(C)C)C(=O)O)N1CCC(C)(CC1)OCCCCCc1ccccc1-c1cccc-3c1 [Example 19, (2S)-2-(tert-Butoxy)-2-{4,27-dimethyl-26-oxa-1,5,7,8-tetraazahexacyclo[25.2.2.1^6,^9.1^10,^14. 0^2,^7. 0^15,^20]-tritriaconta-2,4,6(33),8,10(32),11,13,15(20),16,18-decaen-3-yl}acetic acid] | 21
10 | Cc1nc2cc3nn2c(c1[C@H](OC(C)(C)C)C(=O)O)-c1ccc2c(c1Cl)N(CCCCCc1ccccc1-c1cccc-3c1)CCO2 [Example 17, (2S)-2-(tert-Butoxy)-2-{33-chloro-4-methyl-29-oxa-5,7,8,26-tetraazaheptacyclo[24.6.2.1^6,^9.1^10,^14.0^2,^7.0^15,^20.0^30,^34]hexatriaconta-1(32),2,4,6(36),8,10(35), 11,13,15(20),16,18,30,33-tridecaen-3-yl}acetic acid] | 145
11 | Cc1nc2cc3nn2c(c1[C@H](OC(C)(C)C)C(=O)O)N1CCC(C)(CC1)OCCCC[C@H](C)Oc1ccc(Cl)cc1-c1cccc-3c1 [Example 82, (2S)-2-(tert-Butoxy)-2-[(22S)-17-chloro-4,22,28-trimethyl-21,27-dioxa-1,5,7,8-tetraazahexacyclo[26.2.2.1^6,^9.1^10,^14.0^2,^7.0^15,^20]tetratriaconta-2,4,6(34),8,10(33), 11, 13, 15 (20),16,18-decaen-3-yl]acetic acid] | 20
12 | Cc1nc2cc3nn2c(c1[C@H](OC(C)(C)C)C(=O)O)-c1ccc2c(c1Cl)N(CCCCCCOc1ccccc1-c1cccc-3c1)CCO2 [Example 5, (2S)-2-(tert-Butoxy)-2-{35-chloro-4-methyl-21,31-dioxa-5,7,8,28-tetraazaheptacyclo[26.6.2.1^6,^9.1^10,^14.0^2,^7.0^15,^200^32,36]octatriaconta-1(34),2,4,6(38),8,10(37), 11, 13, 15 (20), 16,18,32,35-tridecaen-3-yl}acetic acid] | 30
13 | Cc1nc2cc3nn2c(c1[C@H](OC(C)(C)C)C(=O)O)N1CCC(C)(/C=C/C=C/CCc2ccccc2-c2cccc-3c2)CC1 [Example 40, (2S)-2-(tert-Butoxy)-2-[(23E,25E)-4,27-dimethyl-1,5,7,8-tetraazahexacyclo[25.2.2.1^6,^9.1^10,^14.0^2,^7.0^15,^20]tritriaconta-2,4,6(33),8,10(32),11,13, 15(20), 16,18,23,25-dodecaen-3-yl]acetic acid] | 34
14 | Cc1nc2cc3nn2c(c1[C@H](OC(C)(C)C)C(=O)O)N1CCC(C)(CCCCCOc2ccc(Cl)cc2-c2cccc-3c2)CC1 [Example 44, (2S)-2-(tert-Butoxy)-2-{17-chloro-4,27-dimethyl-21-oxa-1,5,7,8-tetraazahexacyclo[25.2.2.1^6,^9.1^10,^14.0^2,^7.0^15,^20]tritriaconta-2,4, 6(33), 8, 10(32), 11, 13, 15 (20),16,18-decaen-3-yl}acetic acid] | 41
15 | Cc1nc2cc3nn2c(c1[C@H](OC(C)(C)C)C(=O)O)N1CCC(C)(CC1)OCCCC[C@H](C)Oc1ccc(Cl)c(C)c1-c1cccc-3c1 [Example 89, (2S)-2-(tert-Butoxy)-2-[(22S)-17-chloro-4,16,22,28-tetramethyl-21,27-dioxa-1,5,7,8-tetraazahexacyclo[26.2.2.1^6,^9.1^10,^14.0^2,^7.0^15,^20]tetratriaconta-2,4, 6(34), 8, 10(33), 11, 13, 15(20),16,18-decaen-3-yl]acetic acid] | 110
16 | Cc1nc2cc3nn2c(c1[C@H](OC(C)(C)C)C(=O)O)N1CCC(C)(CC1)OCCCC[C@H](C)Oc1ccc(C#N)cc1-c1cccc-3c1 [Example 73, (2S)-2-(tert-Butoxy)-2-[(22S)-17-cyano-4,22,28-trimethyl-21,27-dioxa-1,5,7,8-tetraazahexacyclo[26.2.2.1^6,^9.1^10,^14.0^2,^7.0^15,^20]tetratriaconta-2,4,6(34),8,10(33), 11, 13, 15(20),16,18-decaen-3-yl]acetic acid] | 6
17 | Cc1ccc2c(c1F)-c1cccc(c1)-c1cc3nc(C)c([C@H](OC(C)(C)C)C(=O)O)c(n3n1)N1CCC(C)(CC1)OC/C=C/C[C@H](C)O2 [Example 68, (2S)-2-(tert-Butoxy)-2-[(22S,^24E)-16-fluoro-4,17,22,28-tetramethyl-21,27-dioxa-1,5,7,8-tetraazahexacyclo[26.2.2.1^6,^9.1^10,^14. 0^2,^7.0^15,^20]tetratriaconta-2,4,6(34),8,10(33), 11, 13, 15 (20), 16,18,24-undecaen-3-yl]acetic acid] | 9
18 | Cc1nc2cc3nn2c(c1[C@H](OC(C)(C)C)C(=O)O)-c1ccc2c(c1Cl)N(C/C=C\CCc1cccc(c1)-c1cccc-3c1)CCO2 [Example 1, (2S)-2-(tert-Butoxy)-2-[(22Z)-32-chloro-4-methyl-28-oxa-5,7,8,25-tetraazaheptacyclo[23.6.2.1^6,^9.1^10,^14.1^15,^19.0^2,^7.0^29,^33]hexatriaconta-1(31),2,4,6(36),8,10(35), 11,13,15(34), 16,18,22,29,32-tetradecaen-3-yl]acetic acid] | 853
19 | Cc1cc2c(cc1Cl)-c1cccc(c1)-c1cc3nc(C)c([C@H](OC(C)(C)C)C(=O)O)c(n3n1)N1CCC(C)(CC1)OCCCC[C@H](C)O2 [Example 88, (2S)-2-(tert-Butoxy)-2-[(22S)-17-chloro-4,18,22,28-tetramethyl-21,27-dioxa-1,5,7,8-tetraazahexacyclo[26.2.2.1^6,^9.1^10,^14.0^2,^7.0^15,^20]tetratriaconta-2,4, 6(34), 8, 10(33), 11, 13, 15 (20),16,18-decaen-3-yl]acetic acid] | 86
20 | Cc1nc2cc3nn2c(c1[C@H](OC(C)(C)C)C(=O)O)N1CCC(C)(CC1)OC/C=C\CCc1ccncc1-c1cccc-3c1 [Example 37, (2S)-2-(tert-Butoxy)-2-[(23Z)-4,27-dimethyl-26-oxa-1,5,7,8,17-pentaazahexacyclo[25.2.2.1^6,^9.1^10,^14.0^2,^7.0^15,^20]tritriaconta-2,4,6(33),8,10(32), 11, 13, 15(20),16,18,23-undecaen-3-yl]acetic acid] | 2
21 | Cc1ccc2c(c1)-c1cccc(c1)-c1cc3nc(C)c([C@H](OC(C)(C)C)C(=O)O)c(n3n1)N1CCC(C)(CC1)OC/C=C/C[C@H](C)O2 [Example 53, (2S)-2-(tert-Butoxy)-2-[(22S,^24E)-4,17,22,28-tetramethyl-21,27-dioxa-1,5,7,8-tetraazahexacyclo[26.2.2.1^6,^9.1^10,^14.0^2,^7.0^15,^20]tetratriaconta-2,4,6(34),8,10(33),11,13,15(20),16,18,24-undecaen-3-yl]acetic acid] | 10
22 | Cc1nc2cc3nn2c(c1[C@H](OC(C)(C)C)C(=O)O)N1CCC(C)(CC1)OCC=C[C@H](C)Oc1ccncc1-c1cccc-3c1 [Example 57, (2S)-2-(tert-Butoxy)-2-[(22S)-4,22,27-trimethyl-21,26-dioxa-1,5,7,8,17-pentaazahexacyclo[25.2.2.1^6,^9.1^10,^14.0^2,^7.0^15,^20]tritriaconta-2,4,6(33),8,10(32), 11, 13, 15(20),16,18,23-undecaen-3-yl]acetic acid] | 300
23 | Cc1ccc2c(c1)-c1cccc(c1)-c1cc3nc(C)c([C@H](OC(C)(C)C)C(=O)O)c(n3n1)N1CCC(C)(CC1)OCC=CCO2 [Example 33, (2S)-2-(tert-Butoxy)-2-[4,17,27-trimethyl-21,26-dioxa-1,5,7,8-tetraazahexacyclo[25.2.2.1^6,^9.1^10,^14.0^2,^7.0^15,^20]tritriaconta-2,4,6(33),8,10(32),11,13,15(20),16,18,23-undecaen-3-yl]acetic acid] | 8
